Drawing on PubChem BioAssay (NCI), this text covers GI50 and TGI for eight molecules.

“And” between values parts separate entries of the source, which are not always exact repeats. Equal values may be shown once.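 Briefly, cells in 96-well plates were exposed to five compound concentrations for 48 h, and endpoints were estimated by linear interpolation. GI50: concentration for 50% inhibition of growth. At the TGI there is no net growth.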

Holding throughout (experiment): NCI anticancer screen, dose series, 48 h
Assay [1] deals with A498 renal.
Assay [2] deals with CCRF-CEM leukemia.
Assay [3] deals with HCT-15 colon.
Assay [4] deals with MOLT-4 leukemia.
The test system of assay [5] is SF-539 CNS.
Assay [6] relates to SNB-19 CNS.
For assay [7], the system named is SNB-75 CNS.
For assay [8], the system named is T-47D breast.
The subject of assay [9] is UACC-257 melanoma.
In assay [10] the test system is UO-31 renal.

Take `CN(C)C(=S)SSC(=S)N(C)C`: the GI50 in assay [1] is 15.1 µM; in assay [3], 13.4 µM and 47.9 µM and 13.5 µM; in [5] it was 16.3 µM and 40.8 µM and 10.7 µM; in [6], 25.4 µM; in assay [7], 15.2 µM; in assay [8], 15.9 µM. Moreover, the GI50 in [9] is 15 µM and 4.06 µM and 28.4 µM; in assay [10], 15 µM. In addition, the TGI in assay [1] was over 100 µM; in [2], 37.2 µM and 5.68 µM; in [3], 29.4 µM and > 100 µM and 31 µM; in assay [4] it was 75.1 µM and 37.5 µM and 23.8 µM; in assay [5], 31.9 µM and > 100 µM and > 45.8 µM; in assay [6], over 100 µM. Also, the TGI is 38.5 µM and > 100 µM in assay [7]; 41.7 µM and 39 µM and 88.2 µM in [8]; 30.5 µM and 39.9 µM and > 55.7 µM in assay [9]; 28.7 µM and > 46.4 µM and 94 µM in [10].

With `CC(C)CC(C/C=C1/CC(CO)(COC(=O)C(C)(C)C)OC1=O)CC(C)C` (stereo not drawn), the TGI in [1] was 21.7 µM and 22.2 µM; in assay [2], 18.4 µM; in assay [3], 29.1 µM and 28.7 µM; in assay [4] it was 23.6 µM and > 41.6 µM; in [5], 21.3 µM; in assay [6] it was 23.4 µM and 18.5 µM. For the same molecule, the TGI in [7] was 23.6 µM and 26.6 µM; in assay [8], 40.5 µM and 23.9 µM; in assay [9], 31.3 µM and 31 µM; in assay [10] it was 23 µM and 17.1 µM. Besides, the GI50 in assay [10] is 10.8 µM and 3.51 µM.

`O=C1Nc2ccccc2/C1=C1\CCc2cc(O)ccc21`: the GI50 is 5.65 µM in assay [1]; 7.19 µM in [2]; 5.26 µM in [3]; 12.2 µM in assay [4]; 9.64 µM in assay [5]; 13.2 µM in assay [6]. Also, the GI50 in assay [7] is 8.06 µM; in assay [8] it was 6.35 µM; in [9], 9.47 µM; in [10], 1.67 µM. Further, the TGI in assay [1] was 17.8 µM; in [2], over 25 µM; in [3], over 25 µM; in assay [4] it was over 25 µM; in [5] it was over 25 µM; in assay [6], over 25 µM. For the same molecule, the TGI in assay [7] was over 25 µM; in assay [8] it was over 25 µM; in [9], over 25 µM; in [10] it was over 23.9 µM.

For `OC(c1cc(-c2ccc(C(F)(F)F)cc2)nc(C(F)(F)F)c1)C1CCCCN1` (stereo not drawn), the GI50 in assay [1] was 1.47 µM; in assay [2], 1.62 µM; in assay [3], 1.7 µM; in [4], 1.32 µM; in assay [5], 1.72 µM and 2.39 µM; in [6], 1.53 µM and 5.66 µM. Moreover, the GI50 in [7] is 1.37 µM and 3.96 µM; in assay [8], 1.66 µM and 2.33 µM; in assay [10], 1.44 µM and 4.96 µM. In addition, the TGI in assay [1] is 2.82 µM and 6.07 µM; in assay [2], 3.53 µM and 4.81 µM; in assay [3] it was 3.12 µM and 4.7 µM; in assay [4], 3.16 µM and 4.34 µM; in [5], 3.12 µM and 4.75 µM; in assay [6], 2.92 µM and 13.5 µM. In addition, the TGI in [7] is 2.69 µM and 10.6 µM; in assay [8], 3.31 µM and 6.2 µM; in assay [9], 3.59 µM and 3.69 µM; in [10] it was 2.85 µM and 18.3 µM.

For `CC(C)(C)[Si](C)(C)OC1[C@@H](CNC(=O)NC(=O)CCl)O[C@@H](n2cnc3c(N)ncnc32)[C@H]1O[Si](C)(C)C(C)(C)C` (stereo partly drawn), the GI50 is 6.21 µM in [1]; 0.121 µM in [2]; 0.832 µM in assay [3]; 0.53 µM in assay [4]; 0.944 µM in [5]; 2.43 µM in assay [6]. Also, the GI50 in [7] is 0.867 µM; in assay [8], 1.03 µM; in [9], 2.65 µM; in assay [10], 0.436 µM. Besides, the TGI was found to be 12.8 µM in assay [1]; 0.326 µM in [2]; 1.67 µM in [3]; 1.73 µM in assay [4]; 1.67 µM in assay [5]; 9.46 µM in [6]. For the same molecule, the TGI turned out to be 2.47 µM in assay [7], 2.13 µM in assay [8], 6.93 µM in assay [9] and 1.13 µM in assay [10].

Turning to `CCNC(=O)/C(=C/c1ccc(OC)cc1)c1cc(OC)c(OC)c(OC)c1`, the TGI in assay [1] is over 63.8 µM; in assay [2] it was over 100 µM; in [3], over 100 µM; in assay [4], over 100 µM; in [5], 45.9 µM; in assay [6], over 100 µM. Moreover, the TGI in assay [7] was over 73.4 µM; in [8] it was over 100 µM; in assay [9] it was over 100 µM; in [10], over 100 µM.

In the case of `CCCCCCCCCCNC(=O)CI`, the GI50 is 12.4 µM in [1]; 0.194 µM in assay [2]; 1.5 µM in [3]; 0.298 µM in [4]; 1.78 µM in assay [5]; 11.2 µM in assay [6]. In addition, the GI50 was 1.64 µM in assay [7], 0.829 µM in assay [8], 1.63 µM in [9] and 1.58 µM in assay [10]. The TGI in assay [1] stood at 26.1 µM; in assay [2], 0.482 µM; in assay [3], 3.31 µM; in assay [4], 1.07 µM; in assay [5], 3.22 µM; in assay [6], 23.9 µM. For the same molecule, the TGI in assay [7] worked out at 3.09 µM; in assay [8], 2.41 µM; in [9], 3.39 µM; in assay [10], 3.04 µM.

`N[C@H](CCC(=O)N[C@@H](Cc1c[nH]c2ccccc12)C(=O)O)C(=O)O`: the GI50 in [1], in [2], in [3], in assay [4], in [5] and in assay [6] was over 100 µM throughout. The GI50 in assay [7], in assay [8], in assay [9] and in [10] was over 100 µM each time. Further, the TGI in assay [1], in [2], in assay [3], in assay [4], in assay [5] and in [6] was over 100 µM in each case. Moreover, the TGI in assay [7], in assay [8], in [9] and in [10] was over 100 µM in each case.
